Patent publication US20050069948A1, “Screening method” (priority 2002, published 2005)

Columns and labels:
male Zucker fatty rat = assay: Urinary albumin excretion in Zucker fatty rats; assay type: in vivo
Description: (§1) To the control group and the normal control group, i.e., male Zucker lean rats (ZL rat, Charles River Japan Inc.) with the same age, 0.5% methylcellulose 100 cP (Vehicle) was administered once per day everyday. Eight weeks after administration, urine was accumulated for 24 hours, and then the urinary albumin excretion was determined using A/G B Test Wako (Wako Pure Chemical Industries). Nine weeks after administration, the kidneys were collected and stored at −80° C., and subsequently the kidneys were crushed to extract the total RNA. The primers and fluorescent probe were prepared on the basis of the mRNA sequence previously reported, and then the amount of each of individual mRNAs was determined using ABI PRISM 7700 (Applied Biosystems) by the real time quantitative RT-PCR method.

[1] = system: Egr-1, TGF-β1, PDGF-B, fibronectin and α1 (I) collagen mRNA in the kidney of Zucker Fatty Rats; assay: mRNA expression levels in the kidney of Zucker fatty rats (real time quantitative RT-PCR); assay type: in vivo, rat
Description: as §1

Egr-1 mRNA = Egr-1 mRNA expression in rat glomerular mesangial cells after FCS or AII stimulus (RT-PCR); assay type: cell-based; conditions: 30 minutes after FCS (20%) stimulus; Candesartan 10^−5 M added 5 minutes before; relative value, before stimulus = 1; n = 3, Mean
Description: Glomerular mesangial cells ([…] 7) isolated and cultivated from a male Sprague-Dawley rat (SD rat, Japan Crea) of the age of 4 weeks were cultivated in DMEM medium containing 20% fetal calf serum (FCS) for 4 days, and then the cells were cultivated in DMEM containing 0.2% bovine serum albumin for 3 days. To the cells after cultivation, FCS (20%) or angiotensin II (AII) (10^-6M) was added, and then the resulting mixture was reacted at 37° C. for 30 minutes. The AII type I receptor antagonist Candesartan of 10^-5 M as the final concentration was added to the medium 5 minutes prior to the stimulation of FCS or AII. Thirty minutes after FCS or AII stimulus, total RNA was extracted. The primers and fluorescent probe were prepared on the basis of the mRNA sequence previously reported, and subsequently the level of Egr-1 mRNA expression was determined using ABI PRISM 7700 (Applied Biosystems) by the real time quantitative RT-PCR method.

Egr-1 protein = Egr-1 protein expression in rat glomerular mesangial cells after bFGF stimulus (Western blotting); assay type: cell-based; conditions: ODN 20 μM for 24 hours, one hour after bFGF (3 ng/ml) stimulus, relative value, control = 1, n = 2-3, Mean
Chain of Egr-1 protein (P08154 whole entry): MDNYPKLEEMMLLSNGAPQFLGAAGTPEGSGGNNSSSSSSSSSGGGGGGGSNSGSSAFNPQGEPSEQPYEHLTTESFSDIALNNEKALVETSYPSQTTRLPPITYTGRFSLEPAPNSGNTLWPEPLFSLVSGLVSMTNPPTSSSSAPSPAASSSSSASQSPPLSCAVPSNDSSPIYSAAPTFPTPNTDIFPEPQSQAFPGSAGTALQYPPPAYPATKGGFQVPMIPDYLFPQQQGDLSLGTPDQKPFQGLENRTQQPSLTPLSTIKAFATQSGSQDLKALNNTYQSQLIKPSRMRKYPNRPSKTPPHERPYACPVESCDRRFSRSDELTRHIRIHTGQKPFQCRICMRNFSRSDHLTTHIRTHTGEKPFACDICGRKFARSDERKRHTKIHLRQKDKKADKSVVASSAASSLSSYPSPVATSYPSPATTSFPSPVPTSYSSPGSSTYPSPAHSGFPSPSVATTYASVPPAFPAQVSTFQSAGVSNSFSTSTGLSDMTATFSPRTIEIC
Source text: (§2) Glomerular mesangial cells (passege 4-5) isolated and cultivated from a male SD rat with 4 weeks age were cultivated for 3 to 4 days in DMEM medium containing 20% fetal bovine serum to sub-confluence, and the medium was changed to DMEM containing a 0.2% bovine serum albumin and then the resulting material was subjected to serum starvation. Forty-eight hours after initiation of the serum starvation, Egr-1 AS-ODN (SEQ ID NO: 7) or a Control-ODN (the scrambled ODNs that were matched with the AS-ODN in size and the number of bases, both synthesized by BIOGNOSTIK Corp.) with a concentration of 20 μM was added to the medium and the resultant material was allowed to stand in a CO2 incubator for 24 hours. Thereafter the material was stimulated with a basic fibroblast growth factor (bFGF) (3 ng/ml), and then was reacted at 37° C. for 1 to 2 hours. A protein was extracted from the cell one hour after bFGF stimulus, and total RNA was extracted from a cell two hours after bFGF stimulus. […] The brightness accumulation value of the band thus detected was calculated by a CS Analyzer 1.00a (ATTO). Also, the mRNA expression level of the tissue factor was determined by making the primer and fluorescent probe on the basis of the mRNA sequence previously reported and by using ABI PRISM 7700 (Applied Biosystems) by means of the quantitative RT-PCR method.

tissue factor mRNA = assay: Tissue factor mRNA expression in rat glomerular mesangial cells after bFGF stimulus (quantitative RT-PCR); assay type: cell-based; conditions: ODN 20 μM for 24 hours, two hours after bFGF (3 ng/ml) stimulus, relative value, control = 1, n = 2-3, Mean
Source text: as §2

[2] = system: Glomerular mesangial cells; assay: Cytotoxicity by transfection in rat glomerular mesangial cells; assay type: cell-based; conditions: ODN 20 μM
human Egr-1 (human) = human Egr-1 (human) (UniProt P18146); assay: plate assay: Egr-1 from HEK293 lysate captured on biotinylated double-stranded DNA with the Egr-1 binding sequence (SEQ ID NO: 10) on a streptavidin plate, detected with anti-Egr-1 polyclonal antibody and HRP anti-rabbit IgG
Chain of human Egr-1 (human) (P18146 whole entry): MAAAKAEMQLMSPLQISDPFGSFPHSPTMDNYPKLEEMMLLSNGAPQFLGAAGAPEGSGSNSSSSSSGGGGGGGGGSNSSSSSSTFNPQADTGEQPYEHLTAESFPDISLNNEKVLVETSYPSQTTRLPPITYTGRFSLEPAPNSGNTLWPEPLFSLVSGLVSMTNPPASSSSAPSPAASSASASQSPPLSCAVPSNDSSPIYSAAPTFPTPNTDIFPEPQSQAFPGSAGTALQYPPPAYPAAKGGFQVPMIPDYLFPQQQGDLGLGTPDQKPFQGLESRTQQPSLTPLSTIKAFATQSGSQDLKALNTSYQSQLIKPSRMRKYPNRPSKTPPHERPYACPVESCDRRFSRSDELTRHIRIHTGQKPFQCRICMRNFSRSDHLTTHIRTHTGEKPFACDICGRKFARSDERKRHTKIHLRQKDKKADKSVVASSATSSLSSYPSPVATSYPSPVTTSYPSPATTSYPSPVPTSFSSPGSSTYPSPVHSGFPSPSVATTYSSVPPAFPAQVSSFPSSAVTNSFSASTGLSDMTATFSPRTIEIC

[3] = ZF rat, nine weeks after administration, relative value, ZL rat = 1, n = 8-9, Mean

CCOc1nc2cccc(C(=O)OC(C)OC(=O)OC3CCCCC3)c2n1Cc1ccc(-c2ccccc2-c2nnn[nH]2)cc1 (stereo not drawn) [Candesartan cilexetil]
Urinary albumin excretion (male Zucker fatty rat; ZF rat, orally once per day, eight weeks after administration, 24 hours urine, n = 8-9, Mean): 61.7 mg/day
Increase in the urinary albumin excretion (in words) (male Zucker fatty rat; Zucker fatty rat, oral administration once per day): inhibition of an increase
Increase in the level of Egr-1, TGF-β1, PDGF-B, fibronectin and α1(I) collagen mRNA expression in the kidney (in words) ([1]; Zucker fatty rat, oral administration once per day for 9 weeks): inhibits the increase

CCOc1nc2cccc(C(=O)O)c2n1Cc1ccc(-c2ccccc2-c2nnn[nH]2)cc1 [Candesartan]
Egr-1 mRNA expression level in the kidney [1, 3]: 1.3
Fibronectin mRNA expression level in the kidney [1, 3]: 1.1
PDGF-B mRNA expression level in the kidney [1, 3]: 1.0
TGF-β1 mRNA expression level in the kidney [1, 3]: 1.2
α1 (I) collagen mRNA expression level in the kidney [1, 3]: 1.6
Egr-1 mRNA expression level (Egr-1 mRNA): 18.4

AS-ODN: Egr-1 antisense oligodeoxynucleotide (SEQ ID NO: 7), synthesized by BIOGNOSTIK Corp. (antisense GCGGGGTGCAGGGGCACACT; DNA, backbone and methylation of C not given here)
Egr-1 protein expression (Egr-1 protein): 2.0
Egr-1 protein expression (Egr-1 protein; listed as Egr-1 AS-ODN): suppressed
Tissue factor mRNA expression (tissue factor mRNA): 1.1
Tissue factor mRNA expression (tissue factor mRNA; listed as Egr-1 AS-ODN): almost completely suppressed
Cytotoxicity by transfection [2]: not observed

anti-Egr-1 antigen (rabbit, polyclonal antibody, SANTA CRUZ Corp., sc-189)
absorbance at 450 nm (absorbance (450 nm)) (human Egr-1 (human)): 0.751
